Measurements taken from article PMC6172212, “Structural Analysis of Inhibitor Binding to CAMKK1 Identifies Features Necessary for Design of Specific Inhibitors” (Scientific Reports, 2018).
Read-outs that look alike come from different tables or passages of the source. Values belong to the molecule of their own block, whether it stands above or below them.

Legend:
[1] = biological target: T1, CAMKK1 kinase domain (CAMKK1-KD, Gln124-Lys411) (Homo sapiens, UniProt Q8N5S9); experiment: Differential scanning fluorimetry (DSF) screen of a kinase inhibitor library against CAMKK1-KD; format: binding
T1 construct: The kinase domain (Gln124 to Lys411) was amplified using the primers; 6xHis (TEV-cleavable) (N, cleaved yes); made in house; host or cells: Escherichia coli BL21(DE3)-R3 co-expressing λ-phosphatase
Description: DSF measurements were made in a 384-well plate.
The compounds, previously solubilized in DMSO, were used at 10 µM final concentration and 0.1% DMSO. Plates were sealed using optically clear films and transferred to a QuantStudio 6 qPCR instrument (Applied Biosystems). […] Protein in 0.1% DMSO was used as a reference.

[2] = biological target: T2, CAMKK1 kinase domain (CAMKK1-KD) (Homo sapiens, UniProt Q8N5S9); experiment: Isothermal titration calorimetry (ITC) with CAMKK1-KD; format: binding; conditions: for ΔH: ITC at 20 °C, binding enthalpy
T2 construct: The kinase domain (Gln124 to Lys411) was amplified using the primers; 6xHis (TEV-cleavable) (N, cleaved yes); made in house; host or cells: Escherichia coli BL21(DE3)-R3 co-expressing λ-phosphatase
Description: Measurements were made using a MicroCal AutoiITC200 (Malvern, United Kingdom), at 20 °C with 1000 rpm stirring. For all measurements CAMKK1-KD protein was dialysed overnight against gel filtration buffer, and the dialysis buffer was used to dilute the inhibitors. CAMKK1-KD protein was titrated into a solution containing the inhibitor. […] ITC data was analysed with NITPIC, and SEDPHAT; figures were made using GUSSI[30].

[3] = biological target: T3, full length CAMKK1 (CAMKK1-FL) (Homo sapiens, UniProt Q8N5S9); experiment: IC50 determination by TR-FRET enzymatic assay with CAMKK1-FL in the presence of Ca2+/calmodulin; format: biochemical
T3 construct: made in house; host or cells: Spodoptera frugiperda Sf9 insect cells (baculovirus)
Description: Final assay concentrations of the components of the enzyme mix were 5 nM CAMKK1-FL, 1 µM calmodulin, 1 mM CaCl2, 5 mM MgCl2, 1 mM DTT. Final concentrations of ATP and peptide were 100 µM ATP, 1 µM peptide (STK substrate S1). The inhibitor solutions were prepared starting from 10 mM solutions in DMSO, diluted in enzymatic assay buffer to 200 or 100 µM, and then a 2x serial dilution in enzymatic assay buffer was performed, yielding the serially diluted inhibitors at 2.5x final concentration. […] For detection, 5 µL of streptavidin-XL665, and 5 µL of antibody-Eu-cryptate were added. […] Data was analysed in GraphPad PRISM version 7.

[4] = tested on: CAMKK1; parameters: concentration or dose not given beside the values; conditions: supplement; ref Anastassiadis et al. (2011); cited from earlier work
[5] = tested on: CAMKK2; parameters: concentration or dose not given beside the values; conditions: supplement; ref Anastassiadis et al. (2011); cited from earlier work
[6] = DSF, 1 μM CAMKK1-KD, compound 10 µM, mean and standard error from triplicate measurements, read-out: ΔTm (°C) CAMKK1
[7] = DSF, CAMKK1-KD, compound 10 µM, repeated in Table 3, read-out: ΔTm (°C)
[8] = DSF, 1 μM CAMKK1-KD, compound 10 µM, supplement, read-out: Mean ΔTm (°C)
[9] = DSF, 1 μM CAMKK1-KD, compound 10 µM, supplement

T1 sequence (Q8N5S9 124-411): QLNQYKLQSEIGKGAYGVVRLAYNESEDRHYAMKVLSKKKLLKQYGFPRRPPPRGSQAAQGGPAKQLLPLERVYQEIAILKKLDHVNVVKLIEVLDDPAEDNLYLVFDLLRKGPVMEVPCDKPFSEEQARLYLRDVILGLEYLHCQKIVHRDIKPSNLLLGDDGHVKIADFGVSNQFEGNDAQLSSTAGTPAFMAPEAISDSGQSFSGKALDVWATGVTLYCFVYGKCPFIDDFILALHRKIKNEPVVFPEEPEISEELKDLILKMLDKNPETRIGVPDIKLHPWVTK
T2 sequence (Q8N5S9 124-411): as above

Molecule: CC1(COc2ccc3c(c2)ncn3-c2ccc3cccc(N4CCC(N)CC4)c3n2)COC1 [Crenolanib (CP-868596), Crenolanib]
ΔTm at 10 µM [1, 6]: 13.6 ± 0.6 °C | ΔTm at 10 µM [1, 7]: 13.6 ± 0.6 °C | Kd [2]: 4 nM | ΔH [2]: -45.6 kJ/mol | IC50 [3]: 153 nM

Molecule: CN1CCN(c2ccc3nc(-c4c(N)c5c(F)cccc5[nH]c4=O)[nH]c3c2)CC1 [Dovitinib (TKI-258) Dilactic Acid, Dovitinib]
ΔTm at 10 µM [1, 8]: 5.7 °C | Remaining activity (%) from Anastassiadis et al. (2011) CAMKK1 [4]: 49% | Remaining activity (%) from Anastassiadis et al. (2011) CAMKK2 [5]: 86%

Molecule: CCS(=O)(=O)Nc1ccc2c(c1)/C(=C(/Nc1ccc(CN3CCCCC3)cc1)c1ccccc1)C(=O)N2 [Hesperadin]
ΔTm at 10 µM [1, 6]: 7 ± 0.8 °C | ΔTm at 10 µM [1, 7]: 7 ± 0.8 °C | Kd [2]: 26 nM | ΔH [2]: -58.9 kJ/mol | IC50 [3]: 107 nM

Molecule: Cc1ccc(Nc2nccc(N(C)c3ccc4c(C)n(C)nc4c3)n2)cc1S(N)(=O)=O [Pazopanib]
Remaining activity (%) from Anastassiadis et al. (2011) CAMKK1 [4]: 72% | Remaining activity (%) from Anastassiadis et al. (2011) CAMKK2 [5]: 98%

Molecule: CNC(=O)c1cc(Oc2ccc(NC(=O)Nc3ccc(Cl)c(C(F)(F)F)c3)cc2)ccn1 [Sorafenib]
ΔTm at 10 µM ([1]; read-out: Mean ΔTm (°C)): 2.5 °C | Remaining activity (%) from Anastassiadis et al. (2011) CAMKK1 [4]: 103% | Remaining activity (%) from Anastassiadis et al. (2011) CAMKK2 [5]: 103%

Molecule: CCN(CC)CCNC(=O)c1c(C)[nH]c(/C=C2\C(=O)Nc3ccc(F)cc32)c1C [Sunitinib Malate]
Remaining activity (%) from Anastassiadis et al. (2011) CAMKK1 [4]: 52% | Remaining activity (%) from Anastassiadis et al. (2011) CAMKK2 [5]: 65%

Molecule: Cc1cc(Nc2cc(N3CCN(C)CC3)nc(Sc3ccc(NC(=O)C4CC4)cc3)n2)[nH]n1 [VX-680 (Tozasertib), Tozasertib]
ΔTm at 10 µM [1, 8]: 3.4 °C | Remaining activity (%) from Anastassiadis et al. (2011) CAMKK1 [4]: 86%

Molecule: COc1cc2c(Nc3ccc(Br)cc3F)ncnc2cc1OCC1CCN(C)CC1 [Vandetanib (ZD6474), Vandetanib]
Remaining activity (%) from Anastassiadis et al. (2011) CAMKK1 [4]: 90% | Remaining activity (%) from Anastassiadis et al. (2011) CAMKK2 [5]: 102%

Molecule: CC[C@@H]1C(=O)N(C)c2cnc(Nc3ccc(C(=O)N[C@H]4CC[C@H](N5CCN(CC6CC6)CC5)CC4)cc3OC)nc2N1C(C)C [Volasertib (BI 6727), Volasertib]
ΔTm at 10 µM [1, 6]: 7.7 ± 0.8 °C

Molecule: COc1cc2c(Nc3ccc(NC(=O)c4ccccc4)cc3)ncnc2cc1OCCCN1CCOCC1 [ZM 447439]
Mean ΔTm (°C) [1, 9]: 2.0 °C

Molecule: AZD4547
Mean ΔTm (°C) [1, 9]: 5.9 °C

Continued, values first:

ΔTm at 10 µM [1, 6]: 8.2 ± 0.6 °C | ΔTm at 10 µM [1, 7]: 8.2 ± 0.6 °C | Kd [2]: 45 nM | ΔH [2]: -38.1 kJ/mol | IC50 [3]: 89 nM
Molecule: COc1cc(N2CCC(N3CCN(C)CC3)CC2)ccc1Nc1ncc(Cl)c(Nc2ccccc2P(C)(C)=O)n1 [AP26113]

ΔTm at 10 µM [1, 6]: 14.4 ± 0.9 °C | ΔTm at 10 µM [1, 7]: 14.4 ± 0.9 °C | Kd [2]: 7 nM | IC50 [3]: 101 nM
Molecule: COCCOc1ccc2c(c1)ncn2-c1ccc2cccc(N3CCC(N)CC3)c2n1 [CP-673451]

ΔTm at 10 µM [1, 6]: 16.1 ± 0.8 °C | ΔTm at 10 µM [1, 7]: 16.1 ± 0.8 °C | ΔH [2]: -85.8 kJ/mol
Molecule: O=C(O)c1ccc(-c2c[nH]c3ncc(-c4ccccc4)cc23)cc1C1CCCC1 [GSK650394]

Mean ΔTm (°C) [1, 9]: 3.1 °C
Molecule: C=CC(=O)Nc1cccc(Oc2nc(Nc3ccc(N4CCN(C)CC4)cc3)ncc2Cl)c1 [WZ3146]

Mean ΔTm (°C) [1, 9]: 4.1 °C
Molecule: C=CC(=O)Nc1cccc(Sc2nc(Nc3ccc(N4CCN(C)CC4)cc3)ncc2Cl)c1 [WZ8040]

ΔTm at 10 µM [1, 8]: 4.1 °C
Molecule: COc1ccc(Cl)c(Nc2nc3ccccc3nc2NS(=O)(=O)c2cccc(NC(=O)C(C)(C)N)c2)c1 [XL147]
